Assay results taken from PubChem BioAssay AID328 (DTP/NCI, 2004).
Values joined by “and” are separate entries in the source; they are usually repeats but may differ in a detail not shown here. Equal values may be shown once. Inconclusive results and toxic doses are left out.

Tested on: BDF1 mice, P388 leukemia ip, median survival T/C
Assay: NCI In Vivo Anticancer Drug Screen. Data for tumor model P388 Leukemia (intraperitoneal) in B6D2F1 (BDF1) mice
Details: endpoint: median survival time, higher = longer survival
How it was run: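 Mice carrying the transplantable tumour receive compound or vehicle. Survival is followed in each arm, and the treated measure is divided by the vehicle measure.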

[1] = dose: 25.0 mg/kg/injection, schedule: Q01DX009 (ip), vehicle: saline
[2] = dose: 50.0 mg/kg/injection, schedule: Q01DX009 (ip), vehicle: saline
[3] = dose: 100.0 mg/kg/injection, schedule: Q01DX009 (ip), vehicle: saline
[4] = dose: 100.0 mg/kg/injection, schedule: Q04DX003 (ip), vehicle: saline
[5] = dose: 200.0 mg/kg/injection, schedule: Q04DX003 (ip), vehicle: saline
[6] = dose: 25.0 mg/kg/injection, schedule: Q01DX009 (ip), vehicle: Klucel (hydroxypropylcellulose) (HPC)
[7] = dose: 50.0 mg/kg/injection, schedule: Q01DX009 (ip), vehicle: Klucel (hydroxypropylcellulose) (HPC)
[8] = dose: 200.0 mg/kg/injection, schedule: Q01DX009 (ip), vehicle: saline
[9] = dose: 50.0 mg/kg/injection, schedule: Q01DX009 (ip), vehicle: saline with Tween-80
[10] = dose: 100.0 mg/kg/injection, schedule: Q01DX009 (ip), vehicle: saline with Tween-80
[11] = dose: 200.0 mg/kg/injection, schedule: Q01DX009 (ip), vehicle: saline with Tween-80
[12] = dose: 150.0 mg/kg/injection, schedule: Q01DX009 (ip), vehicle: Klucel (hydroxypropylcellulose) (HPC)
[13] = dose: 400.0 mg/kg/injection, schedule: Q04DX003 (ip), vehicle: saline with Tween-80
[14] = dose: 100.0 mg/kg/injection, schedule: Q04DX003 (ip), vehicle: Klucel (hydroxypropylcellulose) (HPC)
[15] = dose: 400.0 mg/kg/injection, schedule: Q04DX003 (ip), vehicle: Klucel (hydroxypropylcellulose) (HPC)
[16] = dose: 200.0 mg/kg/injection, schedule: Q04DX003 (ip), vehicle: Klucel (hydroxypropylcellulose) (HPC)

Compound: Cc1nccnc1N
- T/C (dose: 6.25 mg/kg/injection, schedule: Q01DX009 (ip), vehicle: saline): 94 % of control
- T/C (dose: 12.5 mg/kg/injection, schedule: Q01DX009 (ip), vehicle: saline): 105 % of control
- T/C [1]: 102 % of control
- T/C [2]: 102 % of control
- T/C (dose: 50.0 mg/kg/injection, schedule: Q04DX003 (ip), vehicle: saline): 94 % of control
- T/C [3]: 105 % of control
- T/C [4]: 98 % of control and 102 % of control
- T/C (dose: 150.0 mg/kg/injection, schedule: Q04DX003 (ip), vehicle: saline): 88 % of control
- T/C [5]: 100 % of control and 124 % of control
- T/C (dose: 300.0 mg/kg/injection, schedule: Q04DX003 (ip), vehicle: saline): 100 % of control

Compound: CSc1cccc(NC(=O)Nc2onc(C)c2C)c1
- T/C (dose: 12.5 mg/kg/injection, schedule: Q01DX009 (ip), vehicle: Klucel (hydroxypropylcellulose) (HPC)): 101 % of control
- T/C [6]: 99 % of control
- T/C [7]: 101 % of control

Compound: Cn1c(N)nc2nc[nH]c2c1=S
- T/C (dose: 10.0 mg/kg/injection, schedule: Q01DX010 (ip), vehicle: saline): 91 % of control
- T/C (dose: 20.0 mg/kg/injection, schedule: Q01DX010 (ip), vehicle: saline): 91 % of control and 95 % of control
- T/C (dose: 40.0 mg/kg/injection, schedule: Q01DX010 (ip), vehicle: saline): 91 % of control and 100 % of control
- T/C (dose: 80.0 mg/kg/injection, schedule: Q01DX010 (ip), vehicle: saline): 91 % of control and 95 % of control

Compound: OCc1cccnc1
- T/C [2]: 93 % of control
- T/C [3]: 100 % of control
- T/C [8]: 100 % of control
- T/C (dose: 400.0 mg/kg/injection, schedule: Q01DX009 (ip), vehicle: saline): 108 % of control

Compound: CN1CCN(C)P1c1ccccc1
- T/C [9]: 109 % of control
- T/C [10]: 112 % of control
- T/C [11]: 110 % of control

Compound: Clc1nc(Cl)nc(-c2cccn2-c2ccccc2)n1
- T/C [6]: 100 % of control
- T/C [7]: 100 % of control
- T/C (dose: 100.0 mg/kg/injection, schedule: Q01DX009 (ip), vehicle: Klucel (hydroxypropylcellulose) (HPC)): 104 % of control
- T/C [12]: 105 % of control
- T/C (dose: 225.0 mg/kg/injection, schedule: Q01DX009 (ip), vehicle: Klucel (hydroxypropylcellulose) (HPC)): 95 % of control

Compound: COC(=O)C1(C)CCC(c2ccc(OC)cc2)CC1=O (stereo not given)
- T/C [2]: 86 % of control
- T/C [3]: 100 % of control
- T/C [4]: 100 % of control
- T/C [8]: 109 % of control
- T/C [5]: 103 % of control

Compound: O=C1O/C(=C2\OCc3ccccc32)c2ccccc21
- T/C (dose: 25.0 mg/kg/injection, schedule: Q01DX009 (ip), vehicle: saline with Tween-80): 100 % of control
- T/C [9]: 98 % of control
- T/C [10]: 98 % of control
- T/C [11]: 96 % of control

Compound: Nc1nc(=S)c2[nH]c(=S)[nH]c2[nH]1
- T/C (dose: 78.0 mg/kg/injection, schedule: Q04DX003 (ip), vehicle: saline with Tween-80): 104 % of control
- T/C (dose: 118.0 mg/kg/injection, schedule: Q04DX003 (ip), vehicle: saline with Tween-80): 112 % of control
- T/C [13]: 172 % of control
- T/C (dose: 600.0 mg/kg/injection, schedule: Q04DX003 (ip), vehicle: saline with Tween-80): 186 % of control

Compound: NC(CCSCc1ccc(N(CCCl)CCCl)cc1)C(=O)O (stereo not given)
- T/C (dose: 2.0 mg/kg/injection, schedule: Q01DX009 (ip), vehicle: Klucel (hydroxypropylcellulose) (HPC)): 163 % of control
- T/C (dose: 3.0 mg/kg/injection, schedule: Q01DX009 (ip), vehicle: Klucel (hydroxypropylcellulose) (HPC)): 186 % of control
- T/C (dose: 4.5 mg/kg/injection, schedule: Q01DX009 (ip), vehicle: Klucel (hydroxypropylcellulose) (HPC)): 190 % of control
- T/C (dose: 5.0 mg/kg/injection, schedule: Q04DX003 (ip), vehicle: Klucel (hydroxypropylcellulose) (HPC)): 169 % of control
- T/C (dose: 7.0 mg/kg/injection, schedule: Q01DX009 (ip), vehicle: Klucel (hydroxypropylcellulose) (HPC)): 183 % of control and 213 % of control
- T/C (dose: 8.0 mg/kg/injection, schedule: Q04DX003 (ip), vehicle: Klucel (hydroxypropylcellulose) (HPC)): 184 % of control
- T/C (dose: 11.0 mg/kg/injection, schedule: Q01DX009 (ip), vehicle: Klucel (hydroxypropylcellulose) (HPC)): 212 % of control
- T/C (dose: 13.0 mg/kg/injection, schedule: Q04DX003 (ip), vehicle: Klucel (hydroxypropylcellulose) (HPC)): 207 % of control
- T/C (dose: 14.0 mg/kg/injection, schedule: Q04DX003 (ip), vehicle: alcohol): 230 % of control
- T/C (dose: 17.0 mg/kg/injection, schedule: Q01DX009 (ip), vehicle: Klucel (hydroxypropylcellulose) (HPC)): 225 % of control and 272 % of control
- T/C (dose: 20.0 mg/kg/injection, schedule: Q04DX003 (ip), vehicle: Klucel (hydroxypropylcellulose) (HPC)): 230 % of control and 204 % of control
- T/C (dose: 21.0 mg/kg/injection, schedule: Q04DX003 (ip), vehicle: alcohol): 226 % of control
- T/C [6]: 272 % of control
- T/C (dose: 30.0 mg/kg/injection, schedule: Q04DX003 (ip), vehicle: Klucel (hydroxypropylcellulose) (HPC)): 272 % of control
- T/C (dose: 33.0 mg/kg/injection, schedule: Q04DX003 (ip), vehicle: saline with Tween-80): 168 % of control and 213 % of control
- T/C (dose: 37.0 mg/kg/injection, schedule: Q01DX009 (ip), vehicle: Klucel (hydroxypropylcellulose) (HPC)): 272 % of control
- T/C (dose: 45.0 mg/kg/injection, schedule: Q04DX003 (ip), vehicle: Klucel (hydroxypropylcellulose) (HPC)): 268 % of control
- T/C [7]: 89 % of control
- T/C (dose: 50.0 mg/kg/injection, schedule: Q04DX003 (ip), vehicle: saline with Tween-80): 227 % of control and 272 % of control
- T/C (dose: 67.0 mg/kg/injection, schedule: Q04DX003 (ip), vehicle: Klucel (hydroxypropylcellulose) (HPC)): 230 % of control
- T/C (dose: 75.0 mg/kg/injection, schedule: Q04DX003 (ip), vehicle: saline with Tween-80): 272 % of control and 190 % of control
- T/C [14]: 230 % of control and 250 % of control
- T/C (dose: 150.0 mg/kg/injection, schedule: Q04DX003 (ip), vehicle: Klucel (hydroxypropylcellulose) (HPC)): 123 % of control
- T/C (dose: 375.0 micrograms/kg/injection, schedule: Q04DX003 (ip), vehicle: saline with Tween-80): 120 % of control

Compound: COc1cc(N(CCCl)CCCl)ccc1C=Nc1ccccc1C(=O)O
- T/C (dose: 5.0 mg/kg/injection, schedule: Q01DX009 (ip), vehicle: saline): 227 % of control
- T/C (dose: 11.9 mg/kg/injection, schedule: Q04DX003 (ip), vehicle: saline with Tween-80): 237 % of control
- T/C (dose: 18.0 mg/kg/injection, schedule: Q04DX003 (ip), vehicle: saline with Tween-80): 254 % of control
- T/C (dose: 27.0 mg/kg/injection, schedule: Q04DX003 (ip), vehicle: saline with Tween-80): 116 % of control

Compound: CCC(/C=C/C(C)C1CCC2C3CC=C4CC(O)CCC4(C)C3CCC12C)C(C)C (stereo not given) (tested in a mixture with another compound)
- T/C [1]: 104 % of control
- T/C (dose: 25.0 mg/kg/injection, schedule: Q04DX003 (ip), vehicle: alcohol): 109 % of control
- T/C [2]: 95 % of control
- T/C (dose: 50.0 mg/kg/injection, schedule: Q04DX003 (ip), vehicle: alcohol): 95 % of control
- T/C [3]: 100 % of control
- T/C (dose: 100.0 mg/kg/injection, schedule: Q04DX003 (ip), vehicle: alcohol): 100 % of control

Compound: OCCN(CCO)c1cc(O)cc(O)c1
- T/C (dose: 100.0 mg/kg/injection, schedule: Q04DX003 (ip), vehicle: saline with Tween-80): 106 % of control
- T/C (dose: 200.0 mg/kg/injection, schedule: Q04DX003 (ip), vehicle: saline with Tween-80): 120 % of control
- T/C [13]: 117 % of control

Compound: CCCCCN(C)/N=N/c1nc[nH]c1C(N)=O
- T/C [11]: 100 % of control
- T/C (dose: 264.0 mg/kg/injection, schedule: Q04DX003 (ip), vehicle: Klucel (hydroxypropylcellulose) (HPC)): 90 % of control
- T/C [15]: 86 % of control

Compound: COc1ccc(Cl)cc1NC(=O)c1ccccc1C(=O)O
- T/C [14]: 91 % of control
- T/C [16]: 87 % of control
- T/C [15]: 87 % of control

Compound: CS(C)=O.CS(C)=O.[Cl][Sn]([Cl])([Cl])[Cl]
- T/C (dose: 37.5 mg/kg/injection, schedule: Q01DX009 (ip), vehicle: Klucel (hydroxypropylcellulose) (HPC)): 105 % of control
- T/C (dose: 75.0 mg/kg/injection, schedule: Q01DX009 (ip), vehicle: Klucel (hydroxypropylcellulose) (HPC)): 100 % of control
- T/C [14]: 104 % of control
- T/C [12]: 100 % of control
- T/C [16]: 90 % of control
